Molecules are shown by their SMILES. Where “and” joins values, the source holds several entries; their conditions need not be identical. Equal entries are not always repeated. Toxic doses and inconclusive results are not listed.

The experiment deals with P388 leukemia ip, CD2F1 mice, survival T/C. In words: NCI In Vivo Anticancer Drug Screen. Data for tumor model P388 Leukemia (intraperitoneal) in CD2F1 (CDF1) mice. The following applies: endpoint: median survival time, higher = longer survival. In a few lines:
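Mice carrying the transplanted tumor received test compound or vehicle. Survival was recorded in each group, and the value is the treated-group measurement divided by that of the vehicle-treated control group.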

Setting [1] is: dose: 30.0 mg/kg/injection, schedule: Q01DX005 (ip), vehicle: saline with Tween-80.
Setting [2] is: dose: 60.0 mg/kg/injection, schedule: Q01DX005 (ip), vehicle: saline with Tween-80.
Setting [3] is: dose: 120.0 mg/kg/injection, schedule: Q01DX005 (ip), vehicle: saline with Tween-80.
The mark [4] stands for this setting: dose: 240.0 mg/kg/injection, schedule: Q01DX005 (ip), vehicle: saline with Tween-80.
[5] abbreviates: dose: 50.0 mg/kg/injection, schedule: Q01DX005 (ip), vehicle: saline with Tween-80.
Setting [6] is: dose: 100.0 mg/kg/injection, schedule: Q01DX005 (ip), vehicle: saline with Tween-80.
The mark [7] stands for this setting: dose: 200.0 mg/kg/injection, schedule: Q01DX005 (ip), vehicle: saline with Tween-80.
The mark [8] stands for this setting: dose: 60.0 mg/kg/injection, schedule: Q01DX005 (ip), vehicle: saline.
[9] abbreviates: dose: 12.5 mg/kg/injection, schedule: Q01DX005 (ip), vehicle: saline with Tween-80.
Setting [10] is: dose: 12.5 mg/kg/injection, schedule: Q01DX009 (ip), vehicle: Klucel (hydroxypropylcellulose) (HPC).
[11] abbreviates: dose: 25.0 mg/kg/injection, schedule: Q01DX009 (ip), vehicle: Klucel (hydroxypropylcellulose) (HPC).
[12] abbreviates: dose: 50.0 mg/kg/injection, schedule: Q01DX009 (ip), vehicle: Klucel (hydroxypropylcellulose) (HPC).
Where [13] appears, read: dose: 100.0 mg/kg/injection, schedule: Q01DX009 (ip), vehicle: Klucel (hydroxypropylcellulose) (HPC).
Setting [14] is: dose: 200.0 mg/kg/injection, schedule: Q01DX009 (ip), vehicle: Klucel (hydroxypropylcellulose) (HPC).
[15] abbreviates: dose: 400.0 mg/kg/injection, schedule: Q01DX009 (ip), vehicle: Klucel (hydroxypropylcellulose) (HPC).

For `CC(=O)Nc1ccc(NC(=S)NC(=O)c2ccccc2)cc1`, the T/C is 107 % of control (dose: 50.0 mg/kg/injection, schedule: Q01DX009 (ip), vehicle: saline with Tween-80); 100 % of control (dose: 100.0 mg/kg/injection, schedule: Q01DX009 (ip), vehicle: saline with Tween-80); 95 % of control (dose: 200.0 mg/kg/injection, schedule: Q01DX009 (ip), vehicle: saline with Tween-80).
As to `CCC[CH2][Sn]([CH2]CCC)([O]C(C)=O)[c]1ccccc1`, the T/C runs as follows: (dose: 1.56 mg/kg/injection, schedule: Q01DX009 (ip), vehicle: saline) 97 % of control; (dose: 3.12 mg/kg/injection, schedule: Q01DX009 (ip), vehicle: saline) 103 % of control; (dose: 6.25 mg/kg/injection, schedule: Q01DX009 (ip), vehicle: saline) 96 % of control; (dose: 50.0 mg/kg/injection, schedule: Q01DX009 (ip), vehicle: saline) 97 % of control; (dose: 100.0 mg/kg/injection, schedule: Q01DX009 (ip), vehicle: saline) 95 % of control; (dose: 200.0 mg/kg/injection, schedule: Q01DX009 (ip), vehicle: saline) 100 % of control.
Turning to `CN1C(NC(=O)C(C)(C)O)C(C)(C)C(C)(C)C1NC(=O)C(C)(C)O` (stereo not given), the T/C was 121 % of control under setting [1], 123 % of control under setting [2], 151 % of control under setting [3] and 123 % of control under setting [4].
For the compound `CN(C)c1ccc2ccc(=O)[nH]c2c1`, the T/C is, setting by setting: under setting [5], 95 % of control; under setting [6], 108 % of control; under setting [7], 99 % of control.
As to `CNc1ccc2c(c1)C(=O)c1c(C)n(C)c3cccc-2c13`, under setting [5], the T/C is 98 % of control.
For `C[Si](C)(C)/N=C(/O[Si](C)(C)C)C(F)(F)F`, the T/C by setting is: under setting [8], 101 % of control; (dose: 120.0 mg/kg/injection, schedule: Q01DX005 (ip), vehicle: saline) 111 % of control; (dose: 240.0 mg/kg/injection, schedule: Q01DX005 (ip), vehicle: saline) 108 % of control.
Regarding `O=C1CCCC(Br)c2ccccc21` (stereo not given), the T/C reads like this: (dose: 100.0 mg/kg/injection, schedule: Q01DX009 (ip), vehicle: distilled water + Tween-80 + alcohol) 112 % of control; (dose: 200.0 mg/kg/injection, schedule: Q01DX009 (ip), vehicle: distilled water + Tween-80 + alcohol) 115 % of control; (dose: 400.0 mg/kg/injection, schedule: Q01DX009 (ip), vehicle: distilled water + Tween-80 + alcohol) 106 % of control.
With `CCOC(=O)N1CCN(C(=S)NNC(C)c2cc3ccccc3cn2)CC1` (stereo not given), the T/C by setting is: (dose: 6.25 mg/kg/injection, schedule: Q01DX005 (ip), vehicle: saline with Tween-80) 103 % of control; under setting [9], 113 % of control.
On to `C#CC(=O)OCC#CCOC(=O)C#C`, for which the T/C by setting is: (dose: 0.75 mg/kg/injection, schedule: Q01DX009 (ip), vehicle: saline with Tween-80) 104 % of control; (dose: 1.5 mg/kg/injection, schedule: Q01DX009 (ip), vehicle: saline with Tween-80) 104 % of control; (dose: 3.0 mg/kg/injection, schedule: Q01DX009 (ip), vehicle: saline with Tween-80) 112 % of control; (dose: 6.0 mg/kg/injection, schedule: Q01DX009 (ip), vehicle: saline with Tween-80) 96 % of control.
On to `CCOc1ccc2nc3cc(I)ccc3c(N)c2c1`, for which the T/C (dose: 7.5 mg/kg/injection, schedule: Q01DX005 (ip), vehicle: saline with Tween-80) is 102 % of control; the T/C (dose: 15.0 mg/kg/injection, schedule: Q01DX005 (ip), vehicle: saline with Tween-80) was 100 % of control; the T/C under setting [1] was 112 % of control.
In the case of `CCn1c(O)c(N=NC(=N)SCC(C)C)c2ccccc21`, the T/C (dose: 6.25 mg/kg/injection, schedule: Q01DX009 (ip), vehicle: suspension in saline) is 97 % of control and the T/C (dose: 12.5 mg/kg/injection, schedule: Q01DX009 (ip), vehicle: suspension in saline) was 94 % of control.
Turning to `COc1ccc(C2CC(=O)N(c3ncccc3C)C(=O)C2)cc1`, the T/C runs as follows: (dose: 100.0 mg/kg/injection, schedule: Q04DX003 (ip), vehicle: saline) 93 % of control; (dose: 200.0 mg/kg/injection, schedule: Q04DX003 (ip), vehicle: saline) 100 % of control; (dose: 400.0 mg/kg/injection, schedule: Q04DX003 (ip), vehicle: saline) 102 % of control.
Take `C/C(=N\N=C(N)N)c1c(C)nn(C(=N)N)c1C`: the T/C was 99 % of control (dose: 15.0 mg/kg/injection, schedule: Q01DX005 (ip), vehicle: saline); 98 % of control (dose: 30.0 mg/kg/injection, schedule: Q01DX005 (ip), vehicle: saline); 99 % of control and 111 % of control under setting [8].
For `C=C(Cl)CNc1ccccc1C(=O)OC`, the T/C was 100 % of control (dose: 25.0 mg/kg/injection, schedule: Q04DX003 (ip), vehicle: Klucel (hydroxypropylcellulose) (HPC)); 100 % of control and 103 % of control (dose: 50.0 mg/kg/injection, schedule: Q04DX003 (ip), vehicle: Klucel (hydroxypropylcellulose) (HPC)); 100 % of control and 110 % of control (dose: 100.0 mg/kg/injection, schedule: Q04DX003 (ip), vehicle: Klucel (hydroxypropylcellulose) (HPC)); 103 % of control and 106 % of control (dose: 200.0 mg/kg/injection, schedule: Q04DX003 (ip), vehicle: Klucel (hydroxypropylcellulose) (HPC)); 100 % of control and 108 % of control (dose: 400.0 mg/kg/injection, schedule: Q04DX003 (ip), vehicle: Klucel (hydroxypropylcellulose) (HPC)).
Turning to `CC(c1ccc(OCc2ccccc2)cc1)c1cc2c(cc1OCCO)OCO2` (stereo not given), the T/C by setting is: under setting [5], 98 % of control; under setting [6], 100 % of control; under setting [7], 100 % of control.
Consider `Cn1c(=O)c2[nH]c(Cc3ccc4c(c3)OCO4)nc2n(C)c1=O`, for which the T/C (dose: 1.56 mg/kg/injection, schedule: Q01DX009 (ip), vehicle: Klucel (hydroxypropylcellulose) (HPC)) was 98 % of control; the T/C (dose: 3.13 mg/kg/injection, schedule: Q01DX009 (ip), vehicle: Klucel (hydroxypropylcellulose) (HPC)) was 97 % of control; the T/C (dose: 6.25 mg/kg/injection, schedule: Q01DX009 (ip), vehicle: Klucel (hydroxypropylcellulose) (HPC)) is 95 % of control; the T/C under setting [10] is 101 % of control; the T/C under setting [11] is 104 % of control; the T/C under setting [12] is 87 % of control. In addition, the T/C is 107 % of control under setting [13] and 100 % of control under setting [14].
As to `ClCCN(CCCl)c1ccc2c(c1)Cc1cc(Br)ccc1-2`, the T/C by setting is: under setting [12], 107 % of control; under setting [13], 110 % of control; under setting [14], 106 % of control; under setting [15], 110 % of control.
On to `c1cc2c(c(-c3nccc4c3CCCC4)n1)CCCC2`, for which the T/C under setting [5] is 109 % of control, the T/C under setting [6] was 109 % of control and the T/C under setting [7] was 93 % of control.
In the case of `NC(=S)Nc1cccc(C(F)(F)F)c1`, the T/C was 104 % of control (dose: 100.0 mg/kg/injection, schedule: Q01DX009 (ip), vehicle: other) and 115 % of control (dose: 200.0 mg/kg/injection, schedule: Q01DX009 (ip), vehicle: other).
For `CSC1NN=C(CCC(=O)Nc2ccc(C)cc2)O1` (stereo not given), the T/C runs as follows: under setting [2], 108 % of control; under setting [3], 92 % of control; under setting [4], 102 % of control.
With `C=C[Si]12OCCN(CCO1)CCO2`, the T/C is 119 % of control under setting [10]; 112 % of control under setting [11]; 114 % of control under setting [12]; 109 % of control and 98 % of control under setting [13]; 102 % of control under setting [14]; 100 % of control under setting [15].
On to `OCc1ccc(CO)cc1`, for which the T/C was 104 % of control (dose: 100.0 mg/kg/injection, schedule: Q04DX003 (ip), vehicle: saline sonified); 100 % of control (dose: 200.0 mg/kg/injection, schedule: Q04DX003 (ip), vehicle: saline sonified); 100 % of control (dose: 400.0 mg/kg/injection, schedule: Q04DX003 (ip), vehicle: saline sonified).
Regarding `O=C1CN(c2cccc(C(F)(F)F)c2)C(=O)CN1/N=C/c1ccco1`, the T/C under setting [9] was 100 % of control; the T/C (dose: 25.0 mg/kg/injection, schedule: Q01DX005 (ip), vehicle: saline with Tween-80) is 105 % of control; the T/C under setting [5] is 99 % of control and 100 % of control.
